Publication PMC11574021, “CEP192 localises mitotic Aurora-A activity by priming its interaction with TPX2” (The EMBO Journal, 2024)

Columns and labels:
Assay type in all cases: cell-based, Homo sapiens
[1] = tested on: TCTP-pS46 in RPE1 p53-/- cells; experiment: Western blot densitometry, TCTP-pS46, RPE1 p53-/-; conditions: mitotic RPE1 p53-/- lysates, inhibitor 30 min
Procedure: For measuring monopolar spindle diameter and counting centriolar foci by immunofluorescence, cells were treated with 10 µM STLC for 1 h and 4 h prior to fixation, respectively.
Drugs were resuspended in DMSO to the stock concentrations indicated in square brackets.
Cells were lysed on ice for 30 min in lysis buffer (50 mM tris pH 8.0, 300 mM NaCl, 0.2%(v/v) NP-40, 10%(v/v) glycerol, protease inhibitor cocktail C, phosphatase inhibitor cocktail 3 (Sigma, 1:200 dilution), 100 nM okadaic acid (Enzo, ALX-350-003-C100)). Lysates were then centrifuged at 14,000 × g, 15 min, 4 °C, the supernatants were transferred to a fresh tube, and the pellet was discarded. Protein concentrations were measured by Bradford assay using Protein Assay Dye Reagent Concentrate (Bio-Rad Laboratories, 5000006). NuPage LDS sample buffer, supplemented with NuPAGE sample reducing agent (Invitrogen) were added prior to boiling for 10 min at 90 °C. […] Nitrocellulose was then blocked in 5% milk (wt/v) in TBS, 0.1% Tween (v/v) (TBST) for 1 h. Primary and secondary antibodies were diluted in 5% milk, TBST and incubated overnight at 4 °C or for 1 h at room temperature, respectively. […]
Densitometric quantification of western blots was also performed in ImageJ. Intensity was measured in a rectangular region of interest (ROI) around each band. […] An adjacent region was also measured to account for background intensity.

γ-tubulin in RPE1 cells = experiment: Immunofluorescence, γ-tubulin centrosomal signal intensity, RPE1; conditions: RPE1 p53-/-, Aurora-A inhibitor 30 min
Procedure: (§1) As noted in the figures, the following drugs were incubated with cells for 30 min at 37 °C: Aurora-B-i ZM447439 2 µM [10 mM], PLK1-I BI2536 1 µM [10 mM] and Aurora-A-i MLN8237 [5 mM] was used at 250 and 500 nM in U251 and RPE1 cells, respectively. Drugs were resuspended in DMSO to the stock concentrations indicated in square brackets. BI2536 (HY-50698), MLN8237 (HY-10971) and ZM447439 (HY-10128) were all purchased from MedChemExpress. For western blotting, a 20-min pre-treatment with proteasome inhibitor (20 µM MG-132, MerckMillipore, 47490 [20 mM]) was required prior to the addition of DMSO control or kinase inhibitors. This prevented mitotic exit as a consequence of checkpoint override following Aurora-A and Aurora-B inhibitor addition.
(§2) For siRNA depletion, 1 × 10^5 cells were seeded in six-well plates and transfected as described above for 48 h prior to fixation. For all other experiments, 2.5 × 10^5 cells were seeded in six-well plates and grown for 24 h before fixation. All cells were grown on 12 mm diameter glass coverslips (VWR, 631–1577). […]
(§3) For CEP192, LATS2-pS83, PCNT, PLK1 and γ-tubulin intensity, a 20-pixel diameter circle was centred over each centrosome and the intensity measured. […]

[2] = tested on: PLK1 in RPE1 p53-/- cells; experiment: Immunofluorescence, PLK1 centrosomal signal intensity, RPE1 p53-/-; conditions: Aurora-A inhibitor 30 min
Procedure: as §1, §2, §3

## COc1cc(Nc2ncc3c(n2)-c2ccc(Cl)cc2C(c2c(F)cccc2OC)=NC3)ccc1C(=O)O [Alisertib]
[1]
  phosphorylation of TCTP (pS46): decreased
γ-tubulin in RPE1 cells
  centrosomal γ-tubulin: significant drop in centrosomal γ-tubulin
[2]
  centrosomal Plk1 levels: negative trend
